# Measured values taken from publication PMC11184554, “Nature-Inspired Gallinamides Are Potent Antischistosomal Agents: Inhibition of the Cathepsin B1 Protease Target and Binding Mode Analysis” (ACS Infectious Diseases, 2024).
# Where two headings read alike, the source gives them in different places.
# Assays:
# SmCB1 = SmCB1 (Schistosoma mansoni, UniProt Q8MNY2, T185A/T300A); assay: SmCB1 IC50 determination with 30 min preincubation; format: biochemical, S. mansoni
# Procedure: Inhibition measurements were performed in duplicate in 96-well microplates (100 μL assay volume) at 37 °C. SmCB1 (40 pM) was added to a mixture of the fluorogenic substrate Cbz–Phe–Arg–AMC (25 μM) and an inhibitor (0–100 μM) in 0.1 M sodium acetate, pH 5.5, containing 2.5 mM dithiothreitol and 0.01% (w/v) BRIJ 35. Substrate hydrolysis was monitored in an Infinite M1000 microplate reader (Tecan) at excitation and emission wavelengths of 360 and 465 nm, respectively, for up to 150 min. An observed first-order rate constant, kobs, was calculated at each inhibitor concentration by fitting the progress curve to the equation P = vi/kobs(1 – exp(−kobst)) + d where P is the product formation, t is the reaction time, vi is the initial velocity, and d is the offset. […] The second-order rate constant, k2nd, (and SE value) was determined by fitting the linear equation kobs = (k2nd[I])/(1 + [S]/Km), where [S] is the substrate concentration, [I] is the inhibitor concentration, and KM is the Michaelis–Menten constant. The KM value determined for SmCB1 was 25 μM. […] To determine IC50 values, SmCB1 (40 pM) was preincubated with the inhibitor (0–100 μM) for 30 min under assay conditions as described above, followed by the addition of the fluorogenic substrate Cbz–Phe–Arg–AMC (20 μM). Substrate hydrolysis was monitored for 30 min in a microplate reader as described above. The IC50 values were determined by nonlinear regression using GraFit software (Erithacus Software).
# [1] = test system: S. mansoni newly transformed schistosomula (NTS); assay: Phenotypic screen with newly transformed schistosomula (NTS); format: cell-based; details: for schistosomula phenotype descriptors: 1 µM compound
# [2] = test system: ex vivo adult mixed sex S. mansoni; assay: Phenotypic screen with ex vivo adult schistosomes; format: cell-based; details: for adult severity score: scale 0 to 4
# Procedure: In the next step, the bioactive compounds gallinamide A, 1, 6, and 9 (selected for structural analyses (see below)) were phenotypically screened against adult schistosomes. Experiments were performed at 1, 2, 5, and 10 μM with ex vivo adult mixed sex S. mansoni, and the phenotypes observed over 48 h were assigned severity scores ranging from 0 to 4 (Table 3 and Table S3).
# For adult schistosomes, screens were performed in 24-well plates containing four male worms and one to two female worms per well in a final volume of 2 mL of complete Basch medium. Compounds were added at the final concentrations between 1 and 10 μM. Incubations were maintained for 48 h at 37 °C under 5% CO2. Afterward, the adult worms were collected, washed in RPMI 1640 medium, and used for soluble protein extract preparation.
# A constrained nomenclature of “descriptors”[39],[42] was used to record the multiple and dynamic changes in movement, shape, and translucence that the schistosome parasite is capable of (Table S1 for NTS and Table S3 for adults). These descriptors were then converted into an ordinal “severity score” system ranging from 0 (no effect) to 4 (maximum effect), which allows for the relative comparison of compound effects.
# [3] = Cytotoxicity, CellTiter Glo 2.0; format: cell-based; details: human, ± SD; for viability at 72 h, 1 µM: panel A, read-out: Cell line viability after 72 h (%); for viability at 24 h, 10 µM / viability at 48 h, 10 µM / viability at 72 h, 10 µM: panel B, read-out: Cell line viability (%) after treatment with 10 µM compound
# Procedure: Table S4. Cytotoxicity of gallinamides.
# Cytotoxicity of gallinamide A and compounds 1, 6, and 9 was tested with four human cell lines and expressed as % viability vs. untreated cells. Cells were treated with the indicated compound concentrations for 72 h (A) or with 10 µM compounds for the indicated time (B) and assayed using CellTiter Glo 2.0 (Promega) according to the manufacturer’ s protocol. Cytotoxicity was expressed as percent viability compared to untreated control cells; the standard deviation of the mean of quadruplicate readings is shown. Cell line abbreviations: HL-60, human promyelocytic leukemia; HeLa, human cervical carcinoma; HepG2, human hepatocellular carcinoma; NHDF, normal human dermal fibroblasts.
# Cell line viability after 72 h (%)
# Cell line HL-60 HeLa HepG2 NHDF
# Cell line viability (%) after treatment w ith 10 µM compound
# [4] = 1 μM compound, 24 h, scale 0 (no effect) to 4 (most severe)
# [5] = 1 μM compound, 48 h, scale 0 to 4
# [6] = 1 μM compound, 72 h, scale 0 to 4
# [7] = 10 µM compound, 24 h, scale 0 to 4
# [8] = 10 µM compound, 48 h, scale 0 to 4
# [9] = 10 µM compound, 72 h, scale 0 to 4
# Chain of SmCB1 (Q8MNY2 87-340 T185A/T300A): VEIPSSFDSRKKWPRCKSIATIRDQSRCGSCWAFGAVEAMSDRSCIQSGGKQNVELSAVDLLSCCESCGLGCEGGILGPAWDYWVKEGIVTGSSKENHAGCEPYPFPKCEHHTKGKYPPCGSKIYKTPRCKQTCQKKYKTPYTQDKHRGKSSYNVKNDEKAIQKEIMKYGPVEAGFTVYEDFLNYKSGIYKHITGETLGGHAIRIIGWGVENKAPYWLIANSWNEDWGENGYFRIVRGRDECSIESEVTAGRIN
structure (smiles),measurement,setting,value
COC1=CC(=O)N(C(=O)/C=C/[C@H](C)NC(=O)[C@H](CC(C)C)NC(=O)[C@H](CC(C)C)OC(=O)[C@H](Cc2ccccc2)N(C)C)[C@H]1Cc1ccccc1 [compound 6],IC50,SmCB1,517 nM
same,schistosomula phenotype descriptors,[1]; 24 h,"R, unc"
same,schistosomula severity score,[1]; [4],2
same,schistosomula severity score,[1]; [5],4
same,schistosomula severity score,[1]; [6],4
same,schistosomula severity score,[1]; [7],4
same,schistosomula severity score,[1]; [8],4
same,schistosomula severity score,[1]; [9],4
same,adult phenotype descriptors,"[2]; 2 h, 1 µM",N
same,adult severity score,"[2]; 2 h, 1 μM",0
same,adult phenotype descriptors,"[2]; 2 h, 2 µM",N
same,adult severity score,"[2]; 2 h, 2 μM",0
same,adult phenotype descriptors,"[2]; 2 h, 5 µM",unc
same,adult severity score,"[2]; 2 h, 5 μM",1
same,adult phenotype descriptors,"[2]; 2 h, 10 µM","unc, on sides"
same,adult severity score,"[2]; 2 h, 10 μM",2
same,adult phenotype descriptors,"[2]; 6 h, 1 µM",N
same,adult severity score,"[2]; 6 h, 1 μM",0
same,adult phenotype descriptors,"[2]; 6 h, 2 µM",N
same,adult severity score,"[2]; 6 h, 2 μM",0
same,adult phenotype descriptors,"[2]; 6 h, 5 µM",unc
same,adult severity score,"[2]; 6 h, 5 μM",1
same,adult phenotype descriptors,"[2]; 6 h, 10 µM","unc, on sides"
same,adult severity score,"[2]; 6 h, 10 μM",2
same,adult phenotype descriptors,"[2]; 24 h, 1 µM",N
same,adult severity score,"[2]; 24 h, 1 μM",0
same,adult phenotype descriptors,"[2]; 24 h, 2 µM",N
same,adult severity score,"[2]; 24 h, 2 μM",0
same,adult severity score,"[2]; 24 h, 5 μM",2
same,adult severity score,"[2]; 24 h, 10 μM",4
same,adult phenotype descriptors,"[2]; 48 h, 1 µM",N
same,adult severity score,"[2]; 48 h, 1 μM",0
same,adult phenotype descriptors,"[2]; 48 h, 2 µM",dark
same,adult severity score,"[2]; 48 h, 2 μM",1
same,adult severity score,"[2]; 48 h, 5 μM",4
same,adult severity score,"[2]; 48 h, 10 μM",4
same,"viability at 72 h, 1 µM","[3]; HL-60, vs untreated cells",100 ± 5%
same,"viability at 72 h, 1 µM",[3]; HeLa,93 ± 4%
same,"viability at 72 h, 1 µM",[3]; HepG2,104 ± 3%
same,"viability at 72 h, 1 µM",[3]; NHDF,99 ± 3%
same,"viability at 24 h, 10 µM",[3]; HL-60,31 ± 1%
same,"viability at 48 h, 10 µM",[3]; HL-60,11 ± 2%
same,"viability at 72 h, 10 µM",[3]; HL-60,11%
same,"viability at 24 h, 10 µM",[3]; HeLa,45 ± 1%
same,"viability at 48 h, 10 µM",[3]; HeLa,13 ± 1%
same,"viability at 72 h, 10 µM",[3]; HeLa,13 ± 1%
same,"viability at 24 h, 10 µM",[3]; HepG2,61 ± 1%
same,"viability at 48 h, 10 µM",[3]; HepG2,14 ± 1%
same,"viability at 72 h, 10 µM",[3]; HepG2,13 ± 1%
same,"viability at 24 h, 10 µM",[3]; NHDF,100 ± 2%
same,"viability at 48 h, 10 µM",[3]; NHDF,35 ± 3%
same,"viability at 72 h, 10 µM",[3]; NHDF,13 ± 13%
CC[C@H](C)[C@@H](C(=O)O[C@@H](CC(C)C)C(=O)N[C@@H](CC(C)C)C(=O)N[C@@H](C)/C=C/C(=O)N1C(=O)C=C(OC)[C@@H]1C)N(C)C [gallinamide A],IC50,SmCB1,44 nM
same,schistosomula severity score,[1]; [4],1
same,schistosomula phenotype descriptors,[1]; 48 h,"Dark, R"
same,schistosomula severity score,[1]; [5],2
same,schistosomula severity score,[1]; [6],4
same,schistosomula severity score,[1]; [7],4
same,schistosomula severity score,[1]; [8],4
same,schistosomula severity score,[1]; [9],4
same,adult phenotype descriptors,"[2]; 2 h, 1 µM",N
same,adult severity score,"[2]; 2 h, 1 μM",0
same,adult phenotype descriptors,"[2]; 2 h, 2 µM",N
same,adult severity score,"[2]; 2 h, 2 μM",0
same,adult phenotype descriptors,"[2]; 2 h, 5 µM",N
same,adult severity score,"[2]; 2 h, 5 μM",0
same,adult phenotype descriptors,"[2]; 2 h, 10 µM",N
same,adult severity score,"[2]; 2 h, 10 μM",0
same,adult phenotype descriptors,"[2]; 6 h, 1 µM",N
same,adult severity score,"[2]; 6 h, 1 μM",0
same,adult phenotype descriptors,"[2]; 6 h, 2 µM",N
same,adult severity score,"[2]; 6 h, 2 μM",0
same,adult phenotype descriptors,"[2]; 6 h, 5 µM",N
same,adult severity score,"[2]; 6 h, 5 μM",0
same,adult phenotype descriptors,"[2]; 6 h, 10 µM",N
same,adult severity score,"[2]; 6 h, 10 μM",0
same,adult phenotype descriptors,"[2]; 24 h, 1 µM",N
same,adult severity score,"[2]; 24 h, 1 μM",0
same,adult phenotype descriptors,"[2]; 24 h, 2 µM",N
same,adult severity score,"[2]; 24 h, 2 μM",0
same,adult phenotype descriptors,"[2]; 24 h, 5 µM",N
same,adult severity score,"[2]; 24 h, 5 μM",0
same,adult phenotype descriptors,"[2]; 24 h, 10 µM",unc
same,adult severity score,"[2]; 24 h, 10 μM",1
same,adult phenotype descriptors,"[2]; 48 h, 1 µM",N
same,adult severity score,"[2]; 48 h, 1 μM",0
same,adult phenotype descriptors,"[2]; 48 h, 2 µM","S, dark"
same,adult severity score,"[2]; 48 h, 2 μM",2
same,adult phenotype descriptors,"[2]; 48 h, 5 µM","S, dark"
same,adult severity score,"[2]; 48 h, 5 μM",2
same,adult severity score,"[2]; 48 h, 10 μM",3
same,"viability at 72 h, 1 µM","[3]; HL-60, vs untreated cells",100 ± 6%
same,"viability at 72 h, 1 µM",[3]; HeLa,96 ± 4%
same,"viability at 72 h, 1 µM",[3]; HepG2,96 ± 3%
same,"viability at 72 h, 1 µM",[3]; NHDF,105 ± 6%
same,"viability at 24 h, 10 µM",[3]; HL-60,99 ± 5%
same,"viability at 48 h, 10 µM",[3]; HL-60,77 ± 3%
same,"viability at 72 h, 10 µM",[3]; HL-60,73 ± 5%
same,"viability at 24 h, 10 µM",[3]; HeLa,77 ± 4%
same,"viability at 48 h, 10 µM",[3]; HeLa,73 ± 3%
same,"viability at 72 h, 10 µM",[3]; HeLa,88 ± 6%
same,"viability at 24 h, 10 µM",[3]; HepG2,93 ± 6%
same,"viability at 48 h, 10 µM",[3]; HepG2,98 ± 7%
same,"viability at 72 h, 10 µM",[3]; HepG2,94 ± 11%
same,"viability at 24 h, 10 µM",[3]; NHDF,80 ± 2%
same,"viability at 48 h, 10 µM",[3]; NHDF,89 ± 3%
same,"viability at 72 h, 10 µM",[3]; NHDF,94 ± 94%
